The numbers were not newly measured in patent US20160367620A1, “GLUTATHIONE” (priority 2015, published 2016), which cites them from elsewhere.

In one data set the test system is topoisomerase II. To be noted: cited from earlier work.
In another data set the test system is HIV-1. The settings on record: human macrophages; cited from earlier work.
The test system of another data set is 8E5 cells. The settings on record: HIV gene expression, low GSH-peroxidase activity; cited from earlier work.
The test system of data set [1] is murine macrophage J774 cells. To be noted: exposure to the NO-releasing compound; cited from earlier work.
The next data set relates to NFκB. To be noted: Jurkat cells, various concentrations; cited from earlier work.
In the next data set the test system is HIV-1 LTR. The settings on record: Jurkat cells; cited from earlier work.
A further data set relates to HUVEC and QG90 cell. The settings on record: pretreatment of HUVEC, IL-1 induced; cited from earlier work.
Another data set deals with Mouse. To be noted: subcutaneous injection; cited from earlier work.
For a further data set, the system named is P-selectin. The settings on record: human endothelial cells; cited from earlier work.
In data set [2] the test system is human immunodeficiency virus (HIV) expression. The settings on record: U1 cells; cited from earlier work.

As for `O=[N+]([O-])c1ccc(SSc2ccc([N+](=O)[O-])cn2)nc1` [2,2′ dithiobis (5-nitropyridine)], the “topoisomerase II-mediated DNA cleavage” value with topoisomerase II is on record as “caused topoisomerase II-mediated DNA cleavage”. As for `CCCCS(=N)(=O)CCC(N)C(=O)O` (stereo not drawn) [BSO, buthionine sulfoximine], the “HIV yield in the supernatant” value with HIV-1 was “significantly increased”. On to `CCCCCC(/C=C/C=C\C/C=C\C/C=C\CCCC(=O)O)OO` (stereo not drawn) [Example 15-HPETE, 15-hydroperoxy eicosatetraenoic acid], for which, in the data set with 8E5 cells, the “increase in sensitivity of 8E5 cells to killing” value is recorded as 10 fold. As to `CCN1C(=O)C=CC1=O` [NEM, N-ethyl maleimide], the “topoisomerase II-mediated DNA cleavage” value in the data set with topoisomerase II is “caused topoisomerase II-mediated DNA cleavage”.

As for `CC(=O)N[C@H](C(=O)O)C(C)(C)SN=O` [SNAP, S-nitroso-N-acetyl penicillamine], the viability of macrophages result in [1] is given as “diminished”. In the case of `N/C(=N\O)c1cc(O)c(O)c(O)c1` [TD, Trimidox], the “TNF-α-induced NFκB binding” value in the data set with NFκB is recorded as “inhibited”. For the same compound, the “induction of HIV-1 LTR-mediated gene expression by TNF-α and Tat” value in the data set on HIV-1 LTR is reported as “significantly suppressed”. On to `CC(=O)Oc1ccccc1C(=O)O` [aspirin], for which the “cell-to-cell attachment of cancer cells to HUVEC” value with HUVEC and QG90 cell was “efficiently blocked the cell-to-cell attachment in a dose-dependent manner”. For the compound `CN1CC[C@]23c4c5ccc(O)c4O[C@H]2C(=O)C=C[C@H]3[C@H]1C5` [morphinone], the “toxicity relative to morphine” value in the data set with Mouse is on record as 9 times.

For the compound `CC(=O)CCCCn1c(=O)c2c(ncn2C)n(C)c1=O` [pentoxyphillin], the “cell-to-cell attachment of cancer cells to HUVEC” value with HUVEC and QG90 cell is “efficiently blocked the cell-to-cell attachment in a dose-dependent manner”. `O=C([O-])c1ccccc1O.[Na+]` [sodium salicylate]: in the data set on P-selectin, the “IL-4 induced expression of P-selectin” value is “inhibited”. Take glutathione ester [GSE]: the “induction of HIV expression mediated by PMA, TNF-α, or IL-6” value in [2] is given as “suppressed in a dose-dependent fashion”.
